Values of other authors as cited in US9205144B2, “Identification of conserved peptide blocks in homologous polypeptides” (Dana-Farber Cancer Institute, Inc., priority 2011, dated 2015).

What was measured:
HLA-03 = HLA-03 (Homo sapiens, UniProt P04439)
HLA-03, sequence (P04439 25-365): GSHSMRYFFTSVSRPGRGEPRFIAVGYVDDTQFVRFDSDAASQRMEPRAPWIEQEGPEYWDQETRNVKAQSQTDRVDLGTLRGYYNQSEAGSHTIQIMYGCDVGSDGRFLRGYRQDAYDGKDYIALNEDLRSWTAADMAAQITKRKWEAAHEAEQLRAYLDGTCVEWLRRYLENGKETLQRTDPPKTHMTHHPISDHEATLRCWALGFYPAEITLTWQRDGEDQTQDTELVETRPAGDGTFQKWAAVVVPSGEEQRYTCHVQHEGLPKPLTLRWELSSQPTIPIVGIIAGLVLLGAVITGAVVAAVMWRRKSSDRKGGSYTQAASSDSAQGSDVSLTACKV
HLA-03, sequence (P61769 21-119, further chain): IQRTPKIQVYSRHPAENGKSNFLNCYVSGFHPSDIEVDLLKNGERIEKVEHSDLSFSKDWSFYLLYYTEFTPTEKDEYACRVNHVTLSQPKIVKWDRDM

KTFDTEYQK (listed as Dengue virus) [Peptide 1]
known ligand: ligand for HLA-03 (HLA-03) | ligand for HLA-11 (HLA-11) | ligand for HLA-31 (HLA-31)
